Measured values reported in patent US5919771A, “Urea and thiourea derivatives of glycopeptides” (Eli Lilly and Company, priority 1998, dated 1999).

Tests used:
Assay type in all cases: cell-based
[1] = system: Staphylococcus epidermidis 270; assay: MIC, standard broth micro-dilution assay, SE 270
Procedure: (§1) The antibacterial efficacy of the present compounds is illustrated by Table II. The minimal inhibitory concentrations (MICs) were determined using a standard broth micro-dilution assay.

[2] = system: Staphylococcus haemolyticus 415; assay: MIC, standard broth micro-dilution assay, SH 415
Procedure: as §1

[3] = system: Staphylococcus aureus 447; assay: MIC, standard broth micro-dilution assay, SA 447
Procedure: as §1

[4] = system: Staphylococcus aureus 446; assay: MIC, standard broth micro-dilution assay, SA 446
Procedure: as §1

[5] = system: Enterococcus faecium and faecalis (RESISTANT); details: geometric mean of 4-6 isolates
Procedure: as §1

[6] = system: Enterococcus faecium and faecalis (SENSITIVE); details: geometric mean of 4-6 isolates
Procedure: as §1

[7] = system: Staphylococcus aureus 489; assay: MIC, standard broth micro-dilution assay, SA 489
Procedure: as §1

[8] = system: Streptococcus pyogenes C203; assay: MIC, standard broth micro-dilution assay, SPY C203
Procedure: as §1

[9] = system: Staphylococcus haemolyticus 105; assay: MIC, standard broth micro-dilution assay, SH 105
Procedure: as §1

[10] = system: Streptococcus pneumoniae P1; assay: MIC, standard broth micro-dilution assay, SPN P1
Procedure: as §1

Row | Compound | Minimal Inhibitory Concentration (MIC) SE 270 [1] | Minimal Inhibitory Concentration (MIC) SH 415 [2] | Minimal Inhibitory Concentration (MIC) SA 447 [3] | Minimal Inhibitory Concentration (MIC) SA 446 [4] | Minimal Inhibitory Concentration (MIC) RESISTANT [5] | Minimal Inhibitory Concentration (MIC) SENSITIVE [6] | Minimal Inhibitory Concentration (MIC) SA 489 [7] | Minimal Inhibitory Concentration (MIC) SPY C203 [8] | Minimal Inhibitory Concentration (MIC) SH 105 [9] | Minimal Inhibitory Concentration (MIC) SPN P1 [10]
1 | CC(C)C[C@H](C(=O)N[C@H]1C(=O)N[C@@H](CC(N)=O)C(=O)N[C@H]2C(=O)N[C@H]3C(=O)N[C@H](C(=O)N[C@H](C(=O)O)c4cc(O)cc(O)c4-c4cc3ccc4O)[C@H](O[C@H]3C[C@](C)(N)[C@@H](O)[C@H](C)O3)c3ccc(c(Cl)c3)Oc3cc2cc(c3O[C@@H]2O[C@H](CO)[C@@H](O)[C@H](O)[C@H]2O[C@H]2C[C@](C)(NCc3ccc(Oc4ccccc4)cc3)[C@@H](O)[C@H](C)O2)Oc2ccc(cc2Cl)[C@H]1O)N(C)C(=S)Nc1ccccc1 [Example 3, N^LEU -(PHENYLTHIOCARBAMOYL)-N^DISACC -(p-PHENOXYBENZYL)-A82846B] | 1 | 2 | 1 | 4 | 16 | 1.7 | 2 | ≤ .06 | 2 | 
2 | CC(C)CC(C(=O)NC1C(=O)NC(CC(N)=O)C(=O)NC2C(=O)NC3C(=O)NC(C(=O)NC(C(=O)O)c4cc(O)cc(O)c4-c4cc3ccc4O)C(OC3CC(C)(N)C(O)C(C)O3)c3ccc(c(Cl)c3)Oc3cc2cc(c3OC2OC(CO)C(O)C(O)C2OC2CC(C)(NCc3ccc(Cl)cc3)C(O)C(C)O2)Oc2ccc(cc2Cl)C1O)N(C)C(=S)Nc1ccc(Cl)cc1 (centres unmarked) [Example 12, N^LEU -((p-CHLOROPHENYL)-THIOCARBAMOYL)-N^DISACC -(p-CHLOROBENZYL)A82846B] | 1 | 4 | 1 | 4 | 128 | 3.5 | 1 | ≤ 0.06 | 2 | ≤ 0.06
3 | CC(C)CC(C(=O)NC1C(=O)NC(CC(N)=O)C(=O)NC2C(=O)NC3C(=O)NC(C(=O)NC(C(=O)O)c4cc(O)cc(O)c4-c4cc3ccc4O)C(OC3CC(C)(N)C(O)C(C)O3)c3ccc(c(Cl)c3)Oc3cc2cc(c3OC2OC(CO)C(O)C(O)C2OC2CC(C)(N)C(O)C(C)O2)Oc2ccc(cc2Cl)C1O)N(C)C(=S)Nc1ccc(OCc2ccccc2)cc1 (centres unmarked) [Example 16, N^LEU -((p-(BENZYLOXY)PHENYL)-THIOCARBAMOYL)A82846B] | 4 | 64 | 1 | 1 | > 128 | 7 | 0.5 | ≤ 0.06 | 8 | 0.125
4 | CC(C)C[C@H](C(=O)N[C@H]1C(=O)N[C@@H](CC(N)=O)C(=O)N[C@H]2C(=O)N[C@H]3C(=O)N[C@H](C(=O)N[C@H](C(=O)O)c4cc(O)cc(O)c4-c4cc3ccc4O)[C@H](O[C@H]3C[C@](C)(N)[C@@H](O)[C@H](C)O3)c3ccc(c(Cl)c3)Oc3cc2cc(c3O[C@@H]2O[C@H](CO)[C@@H](O)[C@H](O)[C@H]2O[C@H]2C[C@](C)(NCc3ccc(-c4ccccc4)cc3)[C@@H](O)[C@H](C)O2)Oc2ccc(cc2Cl)[C@H]1O)N(C)C(=S)Nc1ccccc1 [Example 4, N^LEU -(PHENYLTHIOCARBAMOYL)-N^DISACC -(p-PHENYLBENZYL)A82846B] | 0.5 | 1 | 1 | 2 | 14 | 4 | 0.125 | ≤ 0.06 | 2 | 0.125
5 | CC(C)CC(C(=O)NC1C(=O)NC(CC(N)=O)C(=O)NC2C(=O)NC3C(=O)NC(C(=O)NC(C(=O)O)c4cc(O)cc(O)c4-c4cc3ccc4O)C(OC3CC(C)(N)C(O)C(C)O3)c3ccc(c(Cl)c3)Oc3cc2cc(c3OC2OC(CO)C(O)C(O)C2OC2CC(C)(N)C(O)C(C)O2)Oc2ccc(cc2Cl)C1O)N(C)C(=O)Nc1ccccc1 (centres unmarked) [Example 23, N^LEU -(PHENYLCARBAMOYL)A82846B] | 4 | 64 | 4 | 4 | > 128 | 5.3 | 1 |  | 0.5 | 
6 | COc1ccc(NC(=S)N(C)C(CC(C)C)C(=O)NC2C(=O)NC(CC(N)=O)C(=O)NC3C(=O)NC4C(=O)NC(C(=O)NC(C(=O)O)c5cc(O)cc(O)c5-c5cc4ccc5O)C(OC4CC(C)(N)C(O)C(C)O4)c4ccc(c(Cl)c4)Oc4cc3cc(c4OC3OC(CO)C(O)C(O)C3OC3CC(C)(N)C(O)C(C)O3)Oc3ccc(cc3Cl)C2O)cc1 (centres unmarked) [Example 9, N^LEU -((p-METHOXYPHENYL)-THIOCARBAMOYL)A82846B] | 16 | 32 | 8 | 8 | > 128 | 21 | 4 |  | 32 | 
7 | CC(C)CC(C(=O)NC1C(=O)NC(CC(N)=O)C(=O)NC2C(=O)NC3C(=O)NC(C(=O)NC(C(=O)O)c4cc(O)cc(O)c4-c4cc3ccc4O)C(OC3CC(C)(N)C(O)C(C)O3)c3ccc(c(Cl)c3)Oc3cc2cc(c3OC2OC(CO)C(O)C(O)C2OC2CC(C)(NCc3ccc(Oc4ccccc4)cc3)C(O)C(C)O2)Oc2ccc(cc2Cl)C1O)N(C)C(=O)Nc1ccccc1 (centres unmarked) [Example 24, N^LEU -(PHENYLCARBAMOYL)-N^DISACC -(p-PHENOXYBENZYL)A82846B] | 1 | 1 | 1 | 2 | 16 | 0.87 | 1 |  | 0.25 | 
8 | CC(C)CC(C(=O)NC1C(=O)NC(CC(N)=O)C(=O)NC2C(=O)NC3C(=O)NC(C(=O)NC(C(=O)O)c4cc(O)cc(O)c4-c4cc3ccc4O)C(OC3CC(C)(N)C(O)C(C)O3)c3ccc(c(Cl)c3)Oc3cc2cc(c3OC2OC(CO)C(O)C(O)C2OC2CC(C)(NCc3ccc(Oc4ccccc4)cc3)C(O)C(C)O2)Oc2ccc(cc2Cl)C1O)N(C)C(=S)Nc1ccc(Cl)cc1 (centres unmarked) [Example 10, N^LEU -((p-CHLOROPHENYL)-THIOCARBAMOYL)-N^DISACC -(p-PHENOXYBENZYL)A82846B] | 2 | 2 | 2 | 4 | 9.5 | 1.7 | 2 |  | 1 | 
9 | CC(C)CC(C(=O)NC1C(=O)NC(CC(N)=O)C(=O)NC2C(=O)NC3C(=O)NC(C(=O)NC(C(=O)O)c4cc(O)cc(O)c4-c4cc3ccc4O)C(OC3CC(C)(N)C(O)C(C)O3)c3ccc(c(Cl)c3)Oc3cc2cc(c3OC2OC(CO)C(O)C(O)C2OC2CC(C)(N)C(O)C(C)O2)Oc2ccc(cc2Cl)C1O)N(C)C(=S)Nc1ccc(Cl)cc1 (centres unmarked) [Example 8, N^LEU -((p-CHLOROPHENYL)-THIOCARBAMOYL)A82846B] | 8 | 64 | 4 | 2 | > 128 | 8 | 2 |  | 16 | 
10 | CCCCc1ccc(CNC2(C)CC(OC3C(Oc4c5cc6cc4Oc4ccc(cc4Cl)C(OC4CC(C)(N)C(O)C(C)O4)C4NC(=O)C(NC(=O)C6NC(=O)C(CC(N)=O)NC(=O)C(NC(=O)C(CC(C)C)N(C)C(=S)Nc6ccccc6)C(O)c6ccc(c(Cl)c6)O5)c5ccc(O)c(c5)-c5c(O)cc(O)cc5C(C(=O)O)NC4=O)OC(CO)C(O)C3O)OC(C)C2O)cc1 (centres unmarked) [Example 21, N^LEU -(PHENYLTHIOCARBAMOYL)-N^DISACC -(p-n-BUTYLBENZYL)-A82846B] |  |  |  |  | 32 | 2.6 |  |  |  | 
11 | COc1ccc(NC(=S)N(C)C(CC(C)C)C(=O)NC2C(=O)NC(CC(N)=O)C(=O)NC3C(=O)NC4C(=O)NC(C(=O)NC(C(=O)O)c5cc(O)cc(O)c5-c5cc4ccc5O)C(OC4CC(C)(N)C(O)C(C)O4)c4ccc(c(Cl)c4)Oc4cc3cc(c4OC3OC(CO)C(O)C(O)C3OC3CC(C)(NCc4ccc(Oc5ccccc5)cc4)C(O)C(C)O3)Oc3ccc(cc3Cl)C2O)cc1 (centres unmarked) [Example 11, N^LEU -((p-METHOXYPHENYL)-THIOCARBAMOYL)-N^DISACC -(p-PHENOXYBENZYL)A82846B] | 2 | 2 | 2 | 4 | 38 | 2.6 | 2 |  | 1 | 
